Reference: patent publication US10974081B2, “Treatment and prevention of sleep disorders” (Purdue Pharma L.P., priority 2016, dated 2021)
Like-named read-outs stand apart in the source and are kept apart here.

Assays:
[1] = tested on: subjects with insomnia disorder; assay: Phase 1 crossover polysomnography (PSG) study in subjects with insomnia disorder; assay type: in vivo, human
[2] = Plasma concentration (pharmacokinetics) after single oral dose in humans; assay type: in vivo, human; conditions: for half-life / Tmax / AUC(0-t) / Cmax / AUC(0-inf): male, human, plasma; for half-life / Tmax: po; for AUC(0-inf): read-out: AUCinf Mean
Procedure: The plasma concentration of Compound (1D) was evaluated in humans for up to 36 hours after administration of a single oral dose of 3, 10, or 30 mg of Compound (1D) in the form of a methyl cellulose suspension. Four healthy male subjects were administered each dose.
FIG. 19A provides a plot of the human plasma concentration of Compound (1D) on a linear scale versus linear time in hours at each dose: 3, 10, and 30 mg. FIG. 19B provides the same results in a plot of human plasma concentration of Compound (1D) on a logarithmic scale versus linear time at each dose. The target plasma exposure indicated in FIG. 19A relates to the effective dose in 80% of subjects from rat modeling results.

[3] = Treatment Period 2 Night 2, 10 mg oral
[4] = Treatment Period Mean, 10 mg oral

## O=C(O)c1nc2ccccc2n([C@H]2C[C@H]3CCC[C@@H](C2)N3C2CC3CCCC(C3)C2)c1=O (stereo partly shown) [Compound (1D)]
[1]; [3]
  Latency to Persistent Sleep (LPS) Maximum: 29.5 min
  Latency to Persistent Sleep (LPS) Mean (SD): 12.50 (9.350) Minutes
  Latency to Persistent Sleep (LPS) Median: 11.50 min
  Latency to Persistent Sleep (LPS) Minimum: 0.5 min
  Total Sleep Time (TST) Maximum: 459.5 min
  Total Sleep Time (TST) Mean (SD): 447.50 (8.594) Minutes
  Total Sleep Time (TST) Median: 450.25 min
  Total Sleep Time (TST) Minimum: 436.0 min
  Wake After Sleep Onset (WASO) Maximum: 38.5 min
  Wake After Sleep Onset (WASO) Mean (SD): 23.44 (8.946) Minutes
  Wake After Sleep Onset (WASO) Median: 22.75 min
  Wake After Sleep Onset (WASO) Minimum: 12.5 min
[1]; [4]
  Latency to Persistent Sleep (LPS) LSM (STDE): 18.14 (4.579) Minutes
  Latency to Persistent Sleep (LPS) Maximum: 70.25 min
  Latency to Persistent Sleep (LPS) Mean (SD): 18.750 (15.6310) Minutes
  Latency to Persistent Sleep (LPS) Median: 15.000 min
  Latency to Persistent Sleep (LPS) Minimum: 2.00 min
  Total Sleep Time (TST) LSM (STDE): 431.09 (12.869) Minutes
  Total Sleep Time (TST) Maximum: 464.00 min
  Total Sleep Time (TST) Mean (SD): 432.026 (35.1088) Minutes
  Total Sleep Time (TST) Median: 443.500 min
  Total Sleep Time (TST) Minimum: 309.00 min
  Wake After Sleep Onset (WASO) LSM (STDE): 25.28 (5.990) Minutes
  Wake After Sleep Onset (WASO) Maximum: 51.75 min
  Wake After Sleep Onset (WASO) Mean (SD): 26.066 (16.2181) Minutes
  Wake After Sleep Onset (WASO) Median: 22.250 min
  Wake After Sleep Onset (WASO) Minimum: 11.00 min
[1]; treatment group versus placebo
  Latency to Persistent Sleep LSM decrease effect: 17.4 min
  Wake After Sleep Onset LSM decrease effect: 38.5 min
[2]; 3 mg single oral dose
  AUCinf Maximum: 176 ng·h/mL
  AUCinf Minimum: 144 ng·h/mL
  AUCt Maximum: 168 ng·h/mL
  AUCt Minimum: 135 ng·h/mL
  Cmax Maximum: 34 ng/mL
  Cmax Minimum: 23 ng/mL
  t1/2 Minimum: 2.1 h
  tmax Maximum: 2.0 h
  AUC(0-t): 154 ng·h/mL
  Cmax: 30 ng/mL
  AUC(0-inf): 161 ng·h/mL
[2]; 10 mg single oral dose
  AUCinf Maximum: 557 ng·h/mL
  AUCinf Minimum: 320 ng·h/mL
  AUCt Maximum: 550 ng·h/mL
  AUCt Minimum: 300 ng·h/mL
  Cmax Maximum: 98 ng/mL
  Cmax Minimum: 56 ng/mL
  t1/2 Maximum: 3.0 h
  t1/2 Minimum: 2.4 h
  tmax Maximum: 2.0 h
  tmax Minimum: 1.0 h
  AUC(0-t): 438 ng·h/mL
  Cmax: 77 ng/mL
  AUC(0-inf): 447 ng·h/mL
[2]; 30 mg single oral dose
  AUCinf Maximum: 714 ng·h/mL
  AUCinf Minimum: 398 ng·h/mL
  AUCt Maximum: 708 ng·h/mL
  AUCt Minimum: 388 ng·h/mL
  Cmax Maximum: 106 ng/mL
  Cmax Minimum: 69 ng/mL
  t1/2 Maximum: 3.2 h
  tmax Maximum: 3.0 h
  tmax Minimum: 1.0 h
  AUC(0-t): 505 ng·h/mL
  Cmax: 83 ng/mL
  AUC(0-inf): 512 ng·h/mL
[2]; across the three doses
  gastrointestinal absorption: rapid gastrointestinal absorption
[2]; 3 mg, 3 mg single oral dose, read-out: t1/2 Mean (converted)
  half-life: 2.3 h
[2]; 3 mg, 3 mg single oral dose, read-out: tmax Mean
  Tmax: 1.6 h
[2]; 3 mg, 3 mg single oral dose, read-out: tmax Median
  Tmax: 1.5 h
[2]; 10 mg, 10 mg single oral dose, read-out: t1/2 Mean (converted)
  half-life: 2.6 h
[2]; 10 mg, 10 mg single oral dose, read-out: tmax Mean
  Tmax: 1.5 h
[2]; 30 mg, 30 mg single oral dose, read-out: t1/2 Mean (converted)
  half-life: 2.8 h
[2]; 30 mg, 30 mg single oral dose, read-out: tmax Mean
  Tmax: 1.8 h
[2]; 30 mg, 30 mg single oral dose, read-out: tmax Median
  Tmax: 1.5 h
[2]; 30 mg, 3, 10 and 30 mg single oral doses, read-out: t1/2, minimum to maximum across the three doses
  half-life: 2.1 to 3.2 h
[2]; 30 mg, 3, 10 and 30 mg single oral doses, read-out: tmax, minimum to maximum across the three doses
  Tmax: 1 to 3 h
